The values below come from patent publication US20260325504A1, “Genetically Engineered Human Pituitary Corticotroph Tumor Organoids Exhibit Divergent Responses to Selective Glucocorticoid Receptor Modulators” (Corcept Therapeutics Incorporated, priority 2022, published 2026).

In assay [1] the test system is Hedgehog pathway. To be noted: by blocking activation of SMO or GLI1/GLI2; cited from earlier work.
The test system of assay [2] is SSTR5. In words: Differential expression of SSTR5 (qRT-PCR) in iPSC generated pituitary organoids. The assay is classed as cell-based, human. To be noted: for effect on mifepristone-induced SSTR5 expression / effect on relacorilant-induced SSTR5 expression: iPSC organoids; for effect on mifepristone-induced SSTR5 expression: pretreatment 2 h before mifepristone (500 nM); for effect on relacorilant-induced SSTR5 expression: pretreatment 2 h before relacorilant (500 nM); for differential expression of SSTR5: iPSCctrl organoids, compound alone, 48 h, FIG. 5C, D. Here is the method:
(§1) Sonic Hedgehog (SHH) was withdrawn from the organoid growth media 16 hours prior to treatment. The experimental treatment groups included: vehicle (Veh), mifepristone (500 nM, Selleckchem S2606), GANT61 (5 μM, Stemcell Technologies 73692), ketoconazole (Keto, 10 μM, Selleckchem S1353), pasireotide (Pas, 100 nM, Target Mol TP2207-SB001), octreotide (Oct, 100 nM, Selleckchem P1017), mifepristone plus GANT61, mifepristone plus Keto, mifepristone plus Pas, relacorilant (500 nM, Corcept Therapeutics CORT125134), relacorilant plus Pas, relacorilant plus Oct, or dexamethasone (Dexa, 100 nM, SIGMA S4902). In the combination treatments, cultures were pretreated with the GANT61, Keto, Pas or Oct for 2 hours prior to treatment with mifepristone or Rela. PitNET tissue derived organoids hPITO36, hPITO37, hPITO38, hPITO39, and hPITO40 were treated with the following experimental conditions: Vehicle (1), pasireotide (2), relacorilant (3), relacorilant & pasireotide (4), mifepristone (5), mifepristone & pasireotide (6). The IC50 values used for each hPITO line for each drug were determined based on dose responses (FIG. 12). All organoid cultures were treated for 48 hours prior to analysis.
(§2) RNA was extracted from PitNET tissue or iPSC generated organoids using TRI Reagent® (Molecular Research Center Inc TR118) and the High Capacity cDNA Reverse Transcription Kit (Applied Biosystems, Foster City, CA) was used for cDNA synthesis of RNA following the recommended protocol. For each sample, 60 ng RNA was reverse transcribed to yield approximately […] total cDNA that was then used for the qRT-PCR. Pre-designed real-time polymerase chain reaction assays were purchased for the following genes: TPit (Thermo Fisher Scientific 4331182 Hs00193027), SF1 (Thermo Fisher Scientific 4331182 Hs00610436), SSTR2 (Thermo Fisher Scientific 4331182 Hs00265624_s1), SSTR5 (Thermo Fisher Scientific 4331182 Hs00990407_s1), POMC (Thermo Fisher Scientific 4331182 Hs01596743_ml), hPRT (Thermo Fisher Scientific 4331182 Hs02800695_ml), and FKBP5 (Thermo Fisher Scientific 4331182 Hs01561006_m1). Polymerase chain reaction amplifications were performed in a total volume of 20 μL containing 20× TaqMan Expression Assay primers, 2× TaqMan Universal Master Mix (Applied Biosystems, TaqMan® Gene Expression Systems), and cDNA template. Each polymerase chain reaction amplification was performed in triplicate wells in a StepOne Real-Time PCR System (Applied Biosystems) by using the following conditions: 500C 2 minutes, 95° C. 10 minutes, 95° C. 15 seconds (denature) and 60° C. 1 minute (anneal/extend) for 40 cycles. Fold change was calculated as the following: (Ct-Ct high)=n target, 2ntarget/2nHPRT=fold change where Ct=threshold cycle. The results were expressed as average fold change in or differential gene expression relative to control, with HPRT used as an internal control according to Livak and Schmittgen.
Background: In qPCR the cycle at which signal appears reflects the starting amount.

Assay [3] concerns SSTR2. As to the kind of experiment: Differential expression of SSTR2 (qRT-PCR) in iPSC generated pituitary organoids. The assay is classed as cell-based, human. The following applies: for effect on mifepristone-induced SSTR2 expression / effect on relacorilant-induced SSTR2 expression: iPSC organoids; for effect on mifepristone-induced SSTR2 expression: pretreatment 2 h before mifepristone (500 nM); for effect on relacorilant-induced SSTR2 expression: pretreatment 2 h before relacorilant (500 nM); for differential expression of SSTR2: iPSCctrl organoids, compound alone, 48 h, FIG. 5C, D. Here is the method:
as §1, §2

In assay [4] the test system is iPSC^USP48MV organoids. In words: ACTH secretion ELISA, iPSCUSP48 organoids. The assay is classed as cell-based, human. The following applies: iPSCUSP48, 100 nM pretreatment 2 h before mifepristone, FIG. 7G. Here is the method: as §1
(§3) Organoid conditioned media was collected and ACTH secretion using an ELISA according to the manufacturer's protocol (Novus Biologicals Human ACTH ELISA Kit NBP2-66401). The optical density was measured at a wavelength of 450 nm, and ACTH concentration (pg/mL) was interpolated using a standard curve with a 4-parameter logistic regression analysis using GraphPad Prism (v9.3.1).
On the technique in general: In an ELISA, binding on a coated surface is turned into a signal by an enzyme label.

Assay [5] relates to iPSC^ctrl organoids. As to the kind of experiment: ACTH secretion ELISA, iPSCctrl organoids. The assay is classed as cell-based, human. To be noted: 100 nM pretreatment 2 h before mifepristone, FIG. 6G. Here is the method: as §1, §3
In assay [6] the test system is iPSC^USP48MV organoids. In words: EdU uptake (proliferation) in iPSCUSP48MV organoids. The assay is classed as cell-based, human. To be noted: 100 nM pretreatment 2 h before mifepristone. Here is the method: (§4) iPSCs were stained for pituitary specific hormones including luteinizing hormone (LH), follicle-stimulating hormone (FSH), growth hormone (GH), prolactin (PRL), ACTH, cytokeratin 8/18 (CAM5.2), pituitary transcription factor PIT-1 and neuroendocrine marker Synaptophysin (Table 5). Cultures were immunostained for proliferation marker EdU (Click-IT EdU Alexa Fluor 555 Imaging Kit, Thermo Fisher Scientific C10338). Antibody dilutions were determined based on manufacturer guidelines and antibody titration (Table 5). Staining was conducted according to previously published protocols. Briefly, organoids and iPSCs grown in 8-well glass bottom chamber slides were fixed using 3.7% formaldehyde, washed with DPBS, permeabilized with 0.5% Triton X-100 (SIGMA X-100, PBS-T, 20 min at room temperature), washed with 0.01% PBS-T, and blocked with 2% donkey serum (Jackson Immuno Research 017-000-121) for 1 hour at room temperature. After blocking, primary antibodies were added and incubated overnight at 4° C. Slides were washed with 0.01% PBS-T and incubated with secondary antibodies (Table 5) with Hoechst (Thermo Fisher Scientific H1399) for 1 hour at room temperature. Organoids were washed and stored in PBS at 4° C. until microscopic analysis. High content confocal microscopy was performed using the Nikon Ti2-E Inverted Microscope (with a Crest X-Light V2 L-FOV Spinning Disk Confocal) at the University of Arizona Cancer Center, or a ZEISS LSM880 34 channel Laser Scanning Confocal Microscope at University of Arizona Marley Imaging Core. Fluorescence intensity was quantified as the percentage of marker-positive cells versus total cells, using Nikon Elements Software (Version 5.21.05). Proliferation for each iPSC line was quantified as the percentage of EdU-positive cells versus total cells.
as §1, with “PitNET tissue derived organoids hPITO36, hPITO37, hPITO38, hPITO39, and hPITO40 were treated with the following experimental conditions: Vehicle (1), pasireotide (2), relacorilant (3), relacorilant & pasireotide (4), mifepristone (5), mifepristone & pasireotide (6).” left out, “All organoid cultures were treated for 48 hours prior to analysis.” left out

Assay [7] relates to iPSC^ctrl organoids. As to the kind of experiment: EdU uptake (proliferation) in iPSCctrl organoids. The assay is classed as cell-based, human. To be noted: 100 nM pretreatment 2 h before mifepristone. Here is the method:
as §4
as §1, with “PitNET tissue derived organoids hPITO36, hPITO37, hPITO38, hPITO39, and hPITO40 were treated with the following experimental conditions: Vehicle (1), pasireotide (2), relacorilant (3), relacorilant & pasireotide (4), mifepristone (5), mifepristone & pasireotide (6).” left out, “All organoid cultures were treated for 48 hours prior to analysis.” left out

Assay [8] relates to SSTR2. The following applies: cited from earlier work.
Assay [9] deals with FKBP5. As to the kind of experiment: FKBP5 expression (GR target gene, qRT-PCR) in PitNET organoids. The following applies: PitNET organoids (iPSCctrl, iPSCUSP48MV, iPSCUSP8), 48 h, FIG. 16A-C. The assay is classed as cell-based, human. Here is the method: as §1
as §2, with “10 minutes, 95° C. 15 seconds (denature) and 60° C. 1 minute (anneal/extend) for 40 cycles.” left out

“Also recorded” adds a separate entry of the source.

In the case of `CC(=O)N1CCN(c2ccc(OCC3COC(Cn4ccnc4)(c4ccc(Cl)cc4Cl)O3)cc2)CC1` (stereo not shown) [ketoconazole], in assay [1], the cell proliferation result is “reduce cell proliferation and cell viability”; the cell viability result was “reduce cell proliferation and cell viability”. Moreover, in assay [2], the “effect on mifepristone-induced SSTR5 expression” value is reported as “no effect; also recorded: failed to block the induction”, the “effect on relacorilant-induced SSTR5 expression” value was “no effect; also recorded: failed to block the induction” and the “differential expression of SSTR5” value is “no effect”. Also, in [2] (listed as ketoconozaole), the “effect on mifepristone-induced SSTR5 expression” value was “no effect” and the “effect on relacorilant-induced SSTR5 expression” value is reported as “no effect”. For the same molecule, in assay [3], the “effect on mifepristone-induced SSTR2 expression” value is recorded as “no effect; also recorded: failed to block the induction”, the “effect on relacorilant-induced SSTR2 expression” value is reported as “failed to block the induction” and the “differential expression of SSTR2” value is reported as “no effect”. In [3] (listed as ketoconozaole), the “effect on mifepristone-induced SSTR2 expression” value was “no effect” and the “effect on relacorilant-induced SSTR2 expression” value is “no effect”.

Consider `CN(C)c1ccccc1CN1CCCN(Cc2ccccc2N(C)C)C1c1ccncc1` [GANT61], for which, in assay [1], the cell proliferation entry was “reduce cell proliferation and cell viability”; the cell viability entry is “reduce cell proliferation and cell viability”. Also, in assay [2], the “effect on mifepristone-induced SSTR5 expression” value is “blocks SSTR2 and SSTR5 expression; also recorded: reduced; also recorded: inhibited”; the “effect on relacorilant-induced SSTR5 expression” value was “reduced the induction of SSTR5 expression; also recorded: blocks SSTR2 and SSTR5 expression; also recorded: inhibited”; the “differential expression of SSTR5” value is recorded as “no effect”. Besides, in assay [3], the “effect on mifepristone-induced SSTR2 expression” value was “reduced the induction of SSTR2 expression; also recorded: blocks SSTR2 and SSTR5 expression; also recorded: inhibited”; the “effect on relacorilant-induced SSTR2 expression” value is “blocks SSTR2 and SSTR5 expression; also recorded: inhibited”; the “differential expression of SSTR2” value was “no effect”.

In the case of `C[C@@H](O)[C@@H]1NC(=O)[C@H](CCCCN)NC(=O)[C@@H](Cc2c[nH]c3ccccc23)NC(=O)[C@H](Cc2ccccc2)NC(=O)[C@@H](NC(=O)[C@H](N)Cc2ccccc2)CSSC[C@@H](C(=O)N[C@H](CO)[C@@H](C)O)NC1=O` [octreotide], the “effect on ACTH secretion in response to mifepristone” value in assay [4] is listed as “inhibition by octreotide was greater that pasireotide”; in assay [4] (listed as Oct), “significantly reduced ACTH secretion”; in assay [5], “inhibition by octreotide was greater that pasireotide”; in assay [5] (listed as Oct) it was “significantly reduced ACTH secretion”. The “effect on proliferative response to mifepristone (EdU uptake)” value in assay [6] and in [7] was “inhibited” throughout. Also, the “binding to / activation of SSTR2” value in assay [8] is given as “preferentially binds or activates somatostatin receptor type 2 (SSTR2)”.

Take `C[C@@H]1C[C@H]2[C@@H]3CCC4=CC(=O)C=C[C@]4(C)[C@@]3(F)[C@@H](O)C[C@]2(C)[C@@]1(O)C(=O)CO` [dexamethasone]: the “differential expression of FKBP5” value in [9] is reported as “significant induction in gene expression”. Further, the “differential expression of SSTR5” value in assay [2] is recorded as “significantly decreased expression”. Also, in [3], the “differential expression of SSTR2” value is recorded as “significantly decreased expression”.

As for `CC(C)[C@@H]1NC(=O)[C@H](CCCCN)NC(=O)[C@@H](Cc2c[nH]c3ccccc23)NC(=O)[C@H](Cc2ccc(O)cc2)NC(=O)[C@@H](NC(=O)[C@H](N)Cc2ccc3ccccc3c2)CSSC[C@@H](C(=O)N[C@H](C(N)=O)[C@@H](C)O)NC1=O` [lanreotide], the “binding to / activation of SSTR2” value in [8] was “preferentially binds or activates somatostatin receptor type 2 (SSTR2)”.
